Reference: article PMC12091851, “Replacing a Cereblon Ligand by a DDB1 and CUL4 Associated Factor 11 (DCAF11) Recruiter Converts a Selective Histone Deacetylase 6 PROTAC into a Pan‐Degrader” (Chemmedchem, 2025)

Tests used:
HDAC = details: cited from earlier work
[1] = Aqueous stability assay in DPBS buffer (HPLC); assay type: physicochemical; details: DPBS pH 7.4, 10% DMSO, room temperature, 72 hours
Procedure: and A6. Compounds were diluted in DPBS buffer (pH = 7.4; final DMSO concentration: 10%) and the remaining compound content was analyzed by HPLC. The peak area at 0 h was used for normalization.
Mean ± standard deviation of n = 2 replicates.
Figure S4. Analysis of time dependent degradation by 1j of HDAC1 (A) and HDAC6 (B) by Simple Western™ immunoassay analysis of MM.1S cell lysates. MM.1S cells were treated with 1j (10 µM) or vehicle (DMSO) for the indicated time period. Quantification of protein levels presented as mean ± standard deviation of n = 3 biological replicates. Si gnificance compared to vehicle: * = p≤0.05 , […]
2.5. Aqueous Stability Assay
For stability testing in aqueous solution, a 10-fold concentrated DMSO solution of the respective compounds was diluted in DPBS to generate a 10 µM concentration (final DMSO content of 10%).
Samples of the aqueous solutions were taken after 0, 24, 48, and 72 h at room temperature and the amounts of the parental compound and potential fragments were monitored by HPLC gradient A (see 3.1 General Information). The peak area of the 0 h sample was used for normalization. All compounds were tested in duplicates and GraphPad Prim was used for evaluation and data visualization.
The cell lysis was performed as descripted in 3.2. Simple Western Immunoassay. […]
Afterwards, proteins were transferred with the Trans -Blot Turbo Transfer System (Catalog# 1704150, Bio-Rad) to Immobilon-FL PVDF membranes (Catalog# IPFL00005, Mill ipore Merck, Burlington, MA, USA) at 1.0 A for 30 min and treated with 5% milk-powder solution for 1 h at room temperature under slight agitation. […] The ChemiDoc XRS+ System (Catalog# 1708265 , Bio-Rad) was used for detection and Image Lab Software 6.1 (Bio-Rad) for quantification. […]
In vitro inhibitory activities against HDAC1, 2 , and 6 were measured using a previously published protocol.[3] In vitro inhibitory activities against HDAC4 were measured using a previously published protocol with slight modifications. […]

MM.1S cells = test: Cell cycle analysis by PI staining and flow cytometry; assay type: cell-based, human; details: 10 μM, 48 h
Procedure: GraphPad Prism (GraphPad Software). […]
Biotech), resuspended in 1 mL EtOH/D PBS (7/3 v/v), and fixed for 30 min at 4 °C. The samples were rehydrated with DPBS and treated with 5 µg /mL RNAse ( Catalog# EN0531 , ThermoFisher Scientific Inc.) for 15 min at room temperature. The staining was performed with 3 µM propidium iodide (in DPBS) for 15 min at room temperature and analyzed by flow cytometry ( Guava easyCyteTM, Luminex, […]
Lakes, NJ, USA), using the Watson Pragmatic algorithm.[6] GraphPad Prism (GraphPad Software) was used for normalization, statistical analysis, and bar graph creation. Significance testing was performed with a one-way analysis of variance (ANOVA). Dunnett’s post-hoc test was employed to obtain […]
Final DMSO concentration was 0.1%.
Staining was performed with
Fluorescence was measured by flow cytometry (Guava® easyCyteTM, Luminex, Austin, Texas). GraphPad Prism (GraphPad Software) was used for normalization, statistical analysis, and bar graph creation. Significance testing was performed with a one-way analysis of variance (ANOVA).
Subsequently, cells were harvested and […]
After 30 minutes of incubation at […]
Dunnett’s post-hoc test was employed

MDA-MB-231 cells = test: Clonogenic growth assay; assay type: cell-based, human; details: 10 μM for 48 h, nine days of growth
Procedure: Figure 9 Clonogenic growth assay of DCAF11‐recruiting PROTACs. MDA‐MB‐231 cells were treated with 10 μM of the respective compound or vehicle (DMSO) for 48 hours. (A) Representative images of crystal violet stained colonies after nine days of growth. (B) Quantification of counted colonies, presented as mean ± standard deviation of three biological replicates, each performed in triplicates. Significance of quantification compared to vehicle: ns=p≥0.05; **=p≤0.01 and ***=p≤0.001. […]
Subsequently, cells were harvested and
plated in 6-well plates at a density of 750 cells per well in triplicates. The cell culture medium was
changed after five days. Nine days after plating, the colonies were carefully washed with 500 µL DPBS
and stained with 500 µL crystal violet solution (0.5% in methanol). After 30 minutes of incubation at
room temperature, the wells were gently rinsed with deionized water. After counting the formed
colonies, GraphPad Prism (GraphPad Software) was used for bar graph creation. Significance testing
was performed with a one-way analysis of variance (ANOVA). Dunnett’s post-hoc test was employed
to obtain significance levels of each mean compared to a reference mean value.

Row | decomposition / reduction in content in DPBS buffer [1] | Structure (SMILES) | degraded HDAC isoforms (HDAC) | effect on cell cycle phases (MM.1S cells) | reduction of colonies (clonogenic growth) (MDA-MB-231 cells)
1 | – | O=C(CCCCCCC(=O)N/N=C/c1ccc(OCCOCCOCCn2cc(CNc3cccc4c3C(=O)N(C3CCC(=O)NC3=O)C4=O)nn2)cc1)NO (centres unmarked) [I] | only HDAC6 was degraded | – | –
2 | – | Cc1ncsc1-c1ccc([C@@H](C)NC(=O)[C@H]2C[C@H](O)CN2C(=O)[C@H](NC(=O)CCOCCOCCN(CCc2c[nH]c3ccccc23)Cc2ccc(/C=C/C(=O)NO)cc2)C(C)(C)C)cc1 [V] | degraded HDAC3 and 8 | – | –
3 | remained intact | O=C(CCCCCCC(=O)Nc1ccccc1)NO [Vorinostat, vorinostat, reference compound] | – | stronger effects on the different phases of the cell cycle | less pronounced and not significant
